Data reported in ChEMBL document CHEMBL1130243, “Potent and selective inhibition of neuronal nitric oxide synthase by N omega-propyl-L-arginine” (J Med Chem, 1997).

Legend:
[1] = target: T1, Nitric oxide synthase, inducible (Mus musculus, UniProt P29477); experiment: Compound was tested for binding affinity against recombinant inducible nitric oxide synthase (iNOS) from mouse
T1 sequence (P29477 whole entry): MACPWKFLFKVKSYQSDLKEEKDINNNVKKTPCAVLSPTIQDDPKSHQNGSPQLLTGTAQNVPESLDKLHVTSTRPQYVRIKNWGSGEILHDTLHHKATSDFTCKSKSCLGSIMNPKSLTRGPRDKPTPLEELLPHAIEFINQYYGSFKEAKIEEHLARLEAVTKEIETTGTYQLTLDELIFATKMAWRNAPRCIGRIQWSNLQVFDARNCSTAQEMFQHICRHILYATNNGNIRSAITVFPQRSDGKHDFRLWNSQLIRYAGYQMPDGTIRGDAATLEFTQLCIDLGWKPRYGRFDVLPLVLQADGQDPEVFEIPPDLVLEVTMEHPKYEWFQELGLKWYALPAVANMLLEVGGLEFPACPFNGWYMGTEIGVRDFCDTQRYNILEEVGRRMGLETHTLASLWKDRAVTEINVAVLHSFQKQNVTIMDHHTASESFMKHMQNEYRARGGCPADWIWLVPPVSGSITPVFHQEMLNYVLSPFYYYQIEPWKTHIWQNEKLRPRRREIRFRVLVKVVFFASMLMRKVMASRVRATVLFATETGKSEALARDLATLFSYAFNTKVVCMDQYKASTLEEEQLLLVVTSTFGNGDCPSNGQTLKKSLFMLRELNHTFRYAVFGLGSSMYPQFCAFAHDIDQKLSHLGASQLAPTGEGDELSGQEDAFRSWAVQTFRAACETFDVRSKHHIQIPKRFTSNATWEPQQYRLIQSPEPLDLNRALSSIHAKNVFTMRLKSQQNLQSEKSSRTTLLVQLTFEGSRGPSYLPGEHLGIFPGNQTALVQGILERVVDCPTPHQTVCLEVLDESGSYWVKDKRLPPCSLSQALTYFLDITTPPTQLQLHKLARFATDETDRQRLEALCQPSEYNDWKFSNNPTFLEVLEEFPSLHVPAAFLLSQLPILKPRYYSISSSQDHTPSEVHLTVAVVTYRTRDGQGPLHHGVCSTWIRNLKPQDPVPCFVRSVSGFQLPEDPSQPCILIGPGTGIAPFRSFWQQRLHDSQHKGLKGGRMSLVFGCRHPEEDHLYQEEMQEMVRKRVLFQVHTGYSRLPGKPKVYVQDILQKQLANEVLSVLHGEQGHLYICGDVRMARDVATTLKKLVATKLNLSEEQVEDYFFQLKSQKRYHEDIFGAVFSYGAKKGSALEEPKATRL

Nitric oxide synthase 3 = target: T2, Nitric oxide synthase 3 (Bos taurus, UniProt P29473); experiment: Compound was tested for binding affinity against Endothelial nitric oxide synthase
T2 sequence (P29473 whole entry): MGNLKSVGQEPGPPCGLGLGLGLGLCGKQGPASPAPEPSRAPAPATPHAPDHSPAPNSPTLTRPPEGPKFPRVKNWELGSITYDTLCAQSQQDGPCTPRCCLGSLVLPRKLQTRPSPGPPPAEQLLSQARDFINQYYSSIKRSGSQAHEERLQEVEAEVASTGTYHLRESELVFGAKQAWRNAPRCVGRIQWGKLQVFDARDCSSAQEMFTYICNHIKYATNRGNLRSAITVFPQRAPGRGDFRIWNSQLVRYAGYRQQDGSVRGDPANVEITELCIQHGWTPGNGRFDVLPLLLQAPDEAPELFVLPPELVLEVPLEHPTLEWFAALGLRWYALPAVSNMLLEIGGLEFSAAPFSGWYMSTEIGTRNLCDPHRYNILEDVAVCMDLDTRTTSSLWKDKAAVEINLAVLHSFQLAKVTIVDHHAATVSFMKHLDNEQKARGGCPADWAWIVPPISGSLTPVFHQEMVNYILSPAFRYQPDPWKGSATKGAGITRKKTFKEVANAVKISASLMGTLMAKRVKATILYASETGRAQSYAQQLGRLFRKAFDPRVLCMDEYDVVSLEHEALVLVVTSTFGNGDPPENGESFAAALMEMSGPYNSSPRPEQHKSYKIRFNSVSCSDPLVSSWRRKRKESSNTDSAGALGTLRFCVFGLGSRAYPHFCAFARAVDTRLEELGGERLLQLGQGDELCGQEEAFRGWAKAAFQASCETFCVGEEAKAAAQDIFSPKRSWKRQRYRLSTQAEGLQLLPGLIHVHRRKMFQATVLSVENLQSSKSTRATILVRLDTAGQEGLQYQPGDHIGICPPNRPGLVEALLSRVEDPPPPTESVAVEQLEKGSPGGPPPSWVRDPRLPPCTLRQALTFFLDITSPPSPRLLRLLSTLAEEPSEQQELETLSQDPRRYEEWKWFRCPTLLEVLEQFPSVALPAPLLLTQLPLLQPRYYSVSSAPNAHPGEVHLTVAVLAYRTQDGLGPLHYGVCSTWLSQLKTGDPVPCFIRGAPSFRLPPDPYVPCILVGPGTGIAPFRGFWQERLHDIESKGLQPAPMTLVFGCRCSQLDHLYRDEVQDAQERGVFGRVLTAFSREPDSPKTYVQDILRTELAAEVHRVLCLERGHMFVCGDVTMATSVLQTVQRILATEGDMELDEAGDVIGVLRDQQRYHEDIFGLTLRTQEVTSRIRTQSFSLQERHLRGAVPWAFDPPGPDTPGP

Row | SMILES | Ki [1] [µM] | Ki (Nitric oxide synthase 3) [µM]
1 | C#CC/N=C(/N)NCCCC(N)C(=O)O (stereo unspecified) | 0.62 | 
2 | CCC/N=C(/N)NCCCC(N)C(=O)O (stereo unspecified) |  | 8.5
3 | CC/N=C(/N)NCCCC(N)C(=O)O (stereo unspecified) | 6.1 | 9.5
4 | C=CCNC(=N)NCCCC(N)C(C)=O (stereo unspecified) | 2.1 | 3.1
